Assay results taken from the NIST ThermoML archive (doi:10.1021/je200121f).
Where “and” joins values, the source holds several entries; their conditions need not be identical. Equal entries are not always repeated. Numbers after ± are expanded uncertainties.

Columns and labels:
[1] = refractive index (Na D-line) (dimensionless); conditions: 101.33 kPa, Liquid, Standard Abbe refractometry
[2] = for surface tension liquid-gas: Ring tensiometer; for viscosity / speed of sound / mass density: 101 kPa, Liquid; for viscosity: Capillary tube (Ostwald / Ubbelohde) method; for speed of sound: Sing-around technique in a fixed-path interferometer; for mass density: Vibrating tube method
[3] = xn = mol fraction of the nth substance listed; conditions: x1 = 1; for surface tension liquid-gas: Ring tensiometer; for viscosity / speed of sound / mass density: 101 kPa, Liquid; for viscosity: Capillary tube (Ostwald / Ubbelohde) method; for speed of sound: Sing-around technique in a fixed-path interferometer; for mass density: Vibrating tube method
[4] = refractive index (Na D-line) (dimensionless); xn = mol fraction of the nth substance listed; conditions: 101 kPa, Liquid, Standard Abbe refractometry, x1 = 1

CC(O)CNCC(C)O (stereo not given) [N-(2-hydroxypropyl)-2-hydroxy-1-propanamine]
323.15 K
Conditions | mass density [kg/m3] | refractive index | speed of sound [m/s] | surface tension liquid-gas [mN/m] | viscosity [mPa·s]
[1] | – | 1.4512 ± 0.0008 | – | – | –
[2] | 984.1 ± 0.9 | – | 1420.3 ± 3.4 | 34.5 ± 0.6 | 125.73 ± 3.3

CN1CCCC1=O [N-methylpyrrolidone] + CC(O)CNCC(C)O
Conditions | mass density, [3] [kg/m3] | refractive index, [4] | speed of sound, [3] [m/s] | surface tension liquid-gas, [3] [mN/m] | viscosity, [3] [mPa·s]
293.15 K | 1033.6 ± 0.5 | 1.4688 ± 0.0005 | 1567.9 ± 2.9 | 42.7 ± 0.6 | 1.899 ± 0.018
303.15 K | 1024.7 ± 0.5 | 1.4657 ± 0.0006 | 1529.7 ± 2.9 | 41.3 ± 0.6 | 1.592 ± 0.015
313.15 K | 1015.7 ± 0.5 | 1.4621 ± 0.0006 | 1491.2 ± 2.9 | 41 ± 0.6 | 1.353 ± 0.013
323.15 K | 1006.8 ± 0.5 | 1.4579 ± 0.0006 | 1454.6 ± 2.9 | 39.8 ± 0.6 | 1.17 ± 0.011

CN1CCCC1=O [N-methylpyrrolidone] + C[C@H](O)CN
Conditions | mass density, [3] [kg/m3] | refractive index, [4] | speed of sound, [3] [m/s] | surface tension liquid-gas, [3] [mN/m] | viscosity, [3] [mPa·s]
293.15 K | 1033.6 ± 0.5 | 1.4688 ± 0.0005 | 1567.9 ± 2.9 | 42.7 ± 0.6 | 1.899 ± 0.018
303.15 K | 1024.7 ± 0.5 | 1.4657 ± 0.0006 | 1529.7 ± 2.9 | 41.5 ± 0.6 | 1.592 ± 0.015
313.15 K | 1015.7 ± 0.5 | 1.4621 ± 0.0006 | 1491.2 ± 2.9 | 40.8 ± 0.6 | 1.353 ± 0.013
323.15 K | 1006.8 ± 0.5 | 1.4579 ± 0.0006 | 1454.6 ± 2.9 | 40 ± 0.6 | 1.17 ± 0.011

C[C@H](O)CN [(2S)-1-amino-2-propanol]
Conditions | mass density, [2] [kg/m3] | refractive index, [1] | speed of sound, [2] [m/s] | surface tension liquid-gas, [2] [mN/m] | viscosity, [2] [mPa·s]
293.15 K | 960.8 ± 0.8 | 1.448 ± 0.0007 | 1560.8 ± 3.4 | 37.6 ± 0.6 | 31.67 ± 0.46
303.15 K | 952.8 ± 0.8 | 1.4442 ± 0.0007 | 1528.3 ± 3.4 | 36.9 ± 0.6 | 17.71 ± 0.29
313.15 K | 944.7 ± 0.8 | 1.4401 ± 0.0007 | 1495.7 ± 3.4 | 36.3 ± 0.6 | 10.65 ± 0.16
323.15 K | 936.5 ± 0.8 | 1.436 ± 0.0007 | 1462.9 ± 3.4 | 35.9 ± 0.6 | 6.961 ± 0.11

CN1CCCC1=O [N-methylpyrrolidone]
Conditions | mass density, [2] [kg/m3] | refractive index, [1] | speed of sound, [2] [m/s] | surface tension liquid-gas, [2] | viscosity, [2] [mPa·s]
293.15 K | 1033.6 ± 0.5 | 1.4688 ± 0.0005 | 1567.9 ± 2.9 | 42.7 ± 0.6 mN/m | 1.899 ± 0.018
303.15 K | 1024.7 ± 0.5 | 1.4657 ± 0.0006 | 1529.7 ± 2.9 | 41.5 ± 0.6 mN/m and 41.3 ± 0.6 mN/m | 1.592 ± 0.015
313.15 K | 1015.7 ± 0.5 | 1.4621 ± 0.0006 | 1491.2 ± 2.9 | 40.8 ± 0.6 mN/m and 41 ± 0.6 mN/m | 1.353 ± 0.013
323.15 K | 1006.8 ± 0.5 | 1.4579 ± 0.0006 | 1454.6 ± 2.9 | 40 ± 0.6 mN/m and 39.8 ± 0.6 mN/m | 1.17 ± 0.011
